pIC50: −log10 of the molar value.
Experiments:
Type in all cases: biochemical
PLK2 = molecular target: T1, PLK2 (Homo sapiens, UniProt Q9NYY3); assay: PLK2 Inhibition Assay (Z-Lyte); details: for pIC50: 60 μM ATP, 133 nM PLK2, read-out: PLK2 IC50 Ranges; for inhibition at 10 µM: 10 μM compound, read-out: PLK2 relative inhibition percentage at a dose of 10 μM
T1 construct: purchased Invitrogen PV4204
Procedure: (§1) PLK2 inhibition was determined using the Z-Lyte assay kit from Invitrogen (cat #PV3802). The assay was performed using the recommended manufacturer's instructions with 60 μM ATP and 133 nM PLK2 (Invitrogen cat #PV4204). The % inhibition values were determined according to the manufacturer's directions and IC50 values were obtained using a non-linear 4 point logistic curve fit (XLfit4, IDBS)

Aurora A = molecular target: T2, Aurora A (Homo sapiens, UniProt O14965); assay: Aurora A Inhibition Assay (Z-Lyte); details: for pIC50: 20 μM ATP, 12 nM Aurora A, read-out: Aurora A IC50 Ranges; for inhibition at 10 µM: 10 μM compound, read-out: Aurora A relative inhibition percentage at a dose of 10 μM
T2 construct: purchased Invitrogen PV3612
T2 sequence (O14965 1-403): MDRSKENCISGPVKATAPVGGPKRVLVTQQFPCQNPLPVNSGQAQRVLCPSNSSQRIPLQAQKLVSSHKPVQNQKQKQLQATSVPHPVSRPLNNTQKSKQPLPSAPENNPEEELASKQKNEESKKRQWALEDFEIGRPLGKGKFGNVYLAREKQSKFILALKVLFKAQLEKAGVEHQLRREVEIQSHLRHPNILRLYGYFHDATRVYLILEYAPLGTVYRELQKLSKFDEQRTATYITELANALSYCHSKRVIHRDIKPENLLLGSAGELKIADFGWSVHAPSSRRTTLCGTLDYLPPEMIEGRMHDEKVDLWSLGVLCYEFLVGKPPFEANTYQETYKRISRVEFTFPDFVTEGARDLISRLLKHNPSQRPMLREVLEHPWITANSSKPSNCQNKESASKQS
Procedure: as §1, with “Aurora A” for “PLK2”, “Invitrogen.” for “Invitrogen (cat #PV3802).”, “20” for “60”, “12” for “133”, “#PV3612).” for “#PV4204).”

Aurora B = molecular target: T3, Aurora B (Homo sapiens, UniProt Q96GD4); assay: Aurora B Inhibition Assay (Z-Lyte); details: 128 μM ATP, 28 nM Aurora B; read-out: Aurora B IC50 Ranges
T3 construct: purchased Invitrogen PV3970
T3 sequence (Q96GD4 whole entry): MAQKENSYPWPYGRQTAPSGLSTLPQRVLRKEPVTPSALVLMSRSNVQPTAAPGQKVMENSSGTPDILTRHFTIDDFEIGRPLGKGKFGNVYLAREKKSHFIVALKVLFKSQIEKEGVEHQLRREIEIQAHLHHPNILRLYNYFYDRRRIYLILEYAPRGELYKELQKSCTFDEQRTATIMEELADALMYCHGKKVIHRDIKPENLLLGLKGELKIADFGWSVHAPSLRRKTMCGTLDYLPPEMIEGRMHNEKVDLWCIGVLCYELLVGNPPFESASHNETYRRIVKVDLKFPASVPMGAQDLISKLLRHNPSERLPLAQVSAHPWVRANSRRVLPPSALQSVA
Procedure: as §1, with “Aurora B” for “PLK2”, “Invitrogen.” for “Invitrogen (cat #PV3802).”, “128” for “60”, “28” for “133”, “#PV3970).” for “#PV4204).”

human PLK4 = molecular target: T4, human PLK4 (Homo sapiens, UniProt O00444); assay: PLK4 Inhibition Assay (indirect ELISA); details: 15 μM ATP, 4 nM GST-PLK4; read-out: PLK4 IC50 Ranges
T4 construct: amino terminal GST fusion of residues 1-391 of human PLK4; made in house; host or cells: E. coli
T4 sequence (O00444 1-391): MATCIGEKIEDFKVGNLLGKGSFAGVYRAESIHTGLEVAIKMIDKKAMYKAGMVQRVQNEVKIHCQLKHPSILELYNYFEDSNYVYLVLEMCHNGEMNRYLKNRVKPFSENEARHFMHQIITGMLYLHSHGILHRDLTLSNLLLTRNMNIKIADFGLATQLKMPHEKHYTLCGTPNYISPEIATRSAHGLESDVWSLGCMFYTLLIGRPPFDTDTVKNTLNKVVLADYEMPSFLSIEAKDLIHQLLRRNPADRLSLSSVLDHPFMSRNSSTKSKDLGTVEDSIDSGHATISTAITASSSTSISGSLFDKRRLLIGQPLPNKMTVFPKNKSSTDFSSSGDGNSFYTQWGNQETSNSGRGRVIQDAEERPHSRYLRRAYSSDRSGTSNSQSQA
Method in brief: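 IC50 values, from 4-point logistic fitting, reflect remaining activity measured by indirect ELISA. Enzyme was GST-PLK4 treated with lambda phosphatase and given a 15-minute pre-incubation with compound before ATP start.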

PLK1 = molecular target: T5, PLK1 (Homo sapiens, UniProt P53350); assay: PLK1 Inhibition Assay (Z-Lyte); details: for pIC50: 25 μM ATP, 8 nM PLK1, read-out: PLK1 IC50 Ranges; for inhibition at 10 µM: 10 μM compound, read-out: PLK1 relative inhibition percentage at a dose of 10 μM
T5 construct: purchased Invitrogen PV3501
T5 sequence (P53350 whole entry): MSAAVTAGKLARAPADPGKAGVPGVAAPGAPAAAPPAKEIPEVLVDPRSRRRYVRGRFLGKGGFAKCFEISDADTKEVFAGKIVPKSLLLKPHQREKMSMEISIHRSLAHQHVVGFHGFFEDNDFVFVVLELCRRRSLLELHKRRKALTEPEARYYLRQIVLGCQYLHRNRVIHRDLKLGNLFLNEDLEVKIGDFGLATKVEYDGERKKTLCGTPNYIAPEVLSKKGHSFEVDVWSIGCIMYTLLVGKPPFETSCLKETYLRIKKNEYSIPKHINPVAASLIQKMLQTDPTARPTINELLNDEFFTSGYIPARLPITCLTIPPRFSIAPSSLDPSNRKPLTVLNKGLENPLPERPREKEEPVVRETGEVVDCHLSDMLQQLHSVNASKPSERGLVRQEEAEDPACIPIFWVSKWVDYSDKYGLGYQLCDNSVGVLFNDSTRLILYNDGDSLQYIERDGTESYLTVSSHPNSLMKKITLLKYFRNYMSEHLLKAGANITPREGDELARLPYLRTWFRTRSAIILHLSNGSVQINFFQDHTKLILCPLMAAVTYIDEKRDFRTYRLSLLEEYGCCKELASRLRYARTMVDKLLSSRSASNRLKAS
Procedure: PLK1 inhibition was determined using the Z-Lyte assay kit from Invitrogen (cat #PV3802). […] The % inhibition values were determined according to the manufacturer's directions and IC50 values were obtained using a non-linear 4 point logistic curve fit (XLfit4, IDBS)

T1 sequence (Q9NYY3 whole entry): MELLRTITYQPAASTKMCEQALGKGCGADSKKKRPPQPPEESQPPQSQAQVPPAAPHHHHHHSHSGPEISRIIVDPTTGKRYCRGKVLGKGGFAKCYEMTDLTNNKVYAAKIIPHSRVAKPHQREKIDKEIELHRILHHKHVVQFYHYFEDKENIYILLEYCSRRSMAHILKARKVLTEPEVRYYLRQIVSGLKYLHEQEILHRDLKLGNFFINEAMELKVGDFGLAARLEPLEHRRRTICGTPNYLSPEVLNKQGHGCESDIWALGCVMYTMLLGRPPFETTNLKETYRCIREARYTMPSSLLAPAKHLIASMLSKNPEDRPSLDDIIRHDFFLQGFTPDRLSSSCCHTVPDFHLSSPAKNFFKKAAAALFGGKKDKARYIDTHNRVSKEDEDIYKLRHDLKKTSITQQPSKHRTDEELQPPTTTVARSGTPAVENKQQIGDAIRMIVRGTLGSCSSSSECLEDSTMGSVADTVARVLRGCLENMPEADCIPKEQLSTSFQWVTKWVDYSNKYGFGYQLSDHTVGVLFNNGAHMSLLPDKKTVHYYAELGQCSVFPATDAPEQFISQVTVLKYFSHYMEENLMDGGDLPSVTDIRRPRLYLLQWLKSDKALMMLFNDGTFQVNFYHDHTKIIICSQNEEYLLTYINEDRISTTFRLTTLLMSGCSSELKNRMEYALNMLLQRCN

Compound | pIC50 (PLK2) | pIC50 (Aurora A) | pIC50 (Aurora B) | pIC50 (human PLK4) | pIC50 (PLK1) | inhibition at 10 µM (Aurora A) | inhibition at 10 µM (PLK1) | inhibition at 10 µM (PLK2)
O=C1Nc2ccccc2C1=Cc1ccc2c(/C=C/c3ccccn3)n[nH]c2c1 (mixture of isomers) [Example A41, (E and Z)-3-((3-((E)-2-(pyridin-2-yl)vinyl)-1H-indazol-6-yl)methylene)indolin-2-one] | < 4.30 | > 5.30 | > 5.30 | > 5.30 | < 4.30 | – | – | –
COc1ccc2c(c1)C(=Cc1ccc3c(-c4ccc(N5CCN(C)CC5)nc4)n[nH]c3c1)C(=O)N2 (mixture of isomers) [Example A97, (E and Z)-5-methoxy-3-((3-(6-(4-methylpiperazin-1-yl)pyridin-3-yl)-1H-indazol-6-yl)methylene)indolin-2-one] | – | – | > 5.30 | > 5.30 | – | – | – | –
CN(C)Cc1ccc(/C=C/c2n[nH]c3cc(C=C4C(=O)Nc5ccccc54)ccc23)cc1 (mixture of isomers) [Example A106, (E and Z)-3-[(3-{(E)-2-[4-((dimethylamino)methyl)-phenyl]-ethenyl}-1H-indazol-6-yl)methylidene]-1,3-dihydro-2H-indol-2-one 2,2,2-trifluoroacetate] | – | – | > 5.30 | > 5.30 | – | > 50% | < 50% | –
CN1CCN(c2ccc(/C=C/c3n[nH]c4cc(C=C5C(=O)Nc6ccccc65)ccc34)cn2)CC1 (mixture of isomers) [Example A108, (E and Z)-3-((3-((E)-2-(6-(4-methylpiperazin-1-yl)pyridin-3-yl)vinyl)-1H-indazol-6-yl)methylene)indolin-2-one] | – | > 5.30 | > 5.30 | > 5.30 | – | – | < 50% | < 50%
O=C1Nc2ncc(Br)cc2C1=Cc1ccc2c(/C=C/c3ccncc3)n[nH]c2c1 (mixture of isomers) [Example A109, (E and Z)-5-bromo-3-((3-((E)-2-(pyridin-4-yl)vinyl)-1H-indazol-6-yl)methyl-ene)-1H-pyrrolo[2,3-b]pyridin-2(3H)-one] | – | > 5.30 | > 5.30 | > 5.30 | – | – | < 50% | < 50%
O=C1Nc2ccccc2/C1=C\c1ccc2[nH]nnc2c1 [Example A1, (E)-3-((1H-benzo[d][1,2,3]triazol-5-yl)methylene)indolin-2-one] | 4.30 to 5.30 | – | > 5.30 | > 5.30 | 4.30 to 5.30 | < 50% | – | –
O=C1Nc2ccccc2/C1=C\c1ccc2cn[nH]c2c1 [Example A5, (E)-3-((1H-indazol-6-yl)methylene)indolin-2-one] | 4.30 to 5.30 | > 5.30 | > 5.30 | – | 4.30 to 5.30 | – | – | –
O=C1Nc2ccccc2/C1=C\c1ccc2c(/C=C/c3ccccc3Cl)n[nH]c2c1 [Example A60, (E)-3-((3-((E)-2-chlorostyryl)-1H-indazol-6-yl)methylene)indolin-2-one] | – | > 5.30 | > 5.30 | > 5.30 | – | – | < 50% | < 50%

— patent publication US8765748B2, “Indazolyl, benzimidazolyl, benzotriazolyl substituted indolinone derivatives as kinase inhibitors useful in the treatment of cancer” (University Health Network, priority 2007, dated 2014)
